In ChEMBL document CHEMBL1201862, “PubChem BioAssay data set” (2004):
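The compound was tested at five concentrations on cells cultured in 96-well plates, with a 48-hour exposure period. Abbreviation: GI50, concentration required for 50% inhibition of growth.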 Activity calls are given as the source filed them. Cut-off read from the data, not from the text of the source: active = GI50 up to about 1.1 µM and inactive = higher.

Assays:
Assay in all cases: NCI anticancer screen, dose series, 48 h
[1] = system: HT-29
[2] = system: HCC 2998
[3] = system: HCT-116
[4] = system: OVCAR-3
[5] = system: SNB-19
[6] = system: CCRF-CEM
[7] = system: MCF7
[8] = system: IGROV-1
[9] = system: EKVX
[10] = system: U-251
[11] = system: K562
[12] = system: NCI-H522
[13] = system: Malme-3M
[14] = system: NCI-H23
[15] = system: SF-268
[16] = system: SW-620
[17] = system: SF-295
[18] = system: RXF 393
[19] = system: UACC-62
[20] = system: SN12C
[21] = system: TK-10
[22] = system: DU-145
[23] = system: UACC-257
[24] = system: RPMI-8226
[25] = system: HL-60
[26] = system: SF-539
[27] = system: KM12
[28] = system: OVCAR-8
[29] = system: COLO 205
[30] = system: SNB-75
[31] = system: MOLT-4
[32] = system: BT-549
[33] = system: MDA-N
[34] = system: HCT-15
[35] = system: NCI/ADR-RES
[36] = system: OVCAR-4
[37] = system: CAKI-1
[38] = system: NCI-H226
[39] = system: PC-3
[40] = system: A549
[41] = system: NCI-H460
[42] = system: HOP-92
[43] = system: SK-OV-3
[44] = system: SR
[45] = system: 786-0
[46] = system: SK-MEL-2
[47] = system: SK-MEL-28
[48] = system: HOP-62
[49] = system: OVCAR-5
[50] = system: ACHN
[51] = system: UO-31
[52] = system: MDA-MB-231
[53] = system: Hs-578T
[54] = system: MDA-MB-435
[55] = system: SK-MEL-5
[56] = system: M14
[57] = system: A498
[58] = system: LOX IMVI

Measured: GI50

O=C1c2ccccc2-c2nc3ccncc3n21
inactive: [1] > 100 µM | [2] > 100 µM | [3] 30.5 µM | [4] > 100 µM | [5] > 100 µM | [6] > 100 µM | [7] > 100 µM | [8] > 100 µM | [9] > 100 µM | [10] > 100 µM | [11] > 100 µM | [12] > 100 µM | [13] > 100 µM | [14] > 100 µM | [15] > 100 µM | [16] > 100 µM | [17] > 100 µM | [18] > 100 µM | [19] > 100 µM | [20] > 100 µM | [21] > 100 µM | [22] 51.5 µM | [23] > 100 µM | [24] > 100 µM | [25] > 100 µM | [26] > 100 µM | [27] > 100 µM | [28] > 100 µM | [29] > 100 µM | [30] > 100 µM | [31] > 100 µM | [32] > 100 µM | [33] 31.1 µM | [35] > 100 µM | [36] > 100 µM | [37] > 100 µM | [38] > 100 µM | [39] > 100 µM | [40] > 100 µM | [41] > 100 µM | [42] > 100 µM | [43] > 100 µM | [44] > 100 µM | [45] > 100 µM | [46] > 100 µM | [47] > 100 µM | [48] > 100 µM | [49] > 100 µM | [50] > 100 µM | [51] > 100 µM
> 100 µM: [34]

Cc1ccc(-c2c(C#N)c(-c3ccc(N(C)C)cc3)c(C#N)c(=O)n2NS(=O)(=O)c2ccccc2)cc1
inactive: [1] 38.5 µM | [2] 18.3 µM | [3] 30.7 µM | [5] 63.7 µM | [6] 29.5 µM | [7] 26.1 µM | [8] 63.2 µM | [9] 96.6 µM | [10] 47.9 µM | [52] > 100 µM | [11] 44.9 µM | [53] 33.7 µM | [54] 43.7 µM | [12] 42.3 µM | [13] 87.9 µM | [15] 79.3 µM | [16] 39.2 µM | [17] 23.1 µM | [18] 22.7 µM | [19] 30.8 µM | [55] 17.3 µM | [20] 55.7 µM | [56] 25 µM | [21] 92.3 µM | [23] > 100 µM | [24] 8.67 µM | [25] 44.8 µM | [26] 21.9 µM | [27] 31.3 µM | [28] 44.5 µM | [29] 40.8 µM | [30] 37 µM | [31] 16.4 µM | [32] 37.2 µM | [33] 45.9 µM | [57] 51.4 µM | [35] 39.4 µM | [36] 19.9 µM | [37] 31.7 µM | [38] > 100 µM | [39] 33.4 µM | [58] 28 µM | [40] 36.5 µM | [41] 18.1 µM | [42] > 100 µM | [43] 62.1 µM | [45] 22.9 µM | [46] 37.5 µM | [47] 45.9 µM | [48] 46.2 µM | [49] > 100 µM | [50] 42.7 µM
27.7 µM: [34]
